Source: patent US20170260169A1, “INHIBITORS FOR STEROID RESPONSE ELEMENTS AND RNA POLYMERASE II AND RELATED METHODS” (priority 2007, published 2017)

Tests used:
[1] = Multiple-dose subcutaneous injections, male C57BL/6J mice; assay type: in vivo; conditions: 1 mg/kg SC every 3 days
Method in brief: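 Eight-week-old male C57BL/6J mice (n=3 per group) received 1 mg/kg polyamide subcutaneously every 3 days for three injections and were sacrificed two days after the last dose. Serum was collected by retroorbital bleeding for analysis, and two mice per group underwent histopathology.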

[2] = test system: transcripts in DHT-stimulated LNCaP cells; conditions: previous studies (12); cited from earlier work
RPB1 = RPB1 protein ELISA in LNCaP cells; assay type: cell-based; conditions: polyamide 10 μM 72 hr; doxorubicin 1 μM 24 hr
Procedure: […] Cells treated with DMSO vehicle and 1 μM doxorubicin for 24 h were used as control. Cellular RBP1 levels were determined by a RPB1 specific ELISA kit (Cusabio Life Sciences) according to manufacturer's instructions. Total cellular p53 protein level was determined with a pan-p53 ELISA kit (Roche) according to manufacturer's instructions. Assays were performed in biological triplicates.

RNAP2 large subunit RPB1 = test: Immunoblot of RPB1 protein in LNCaP cells; assay type: cell-based
Procedure: Samples for immunoblot analysis were prepared by plating LNCaP or DU145 cells at 1 million cells per 10 cm plate. Cells were allowed to adhere for 24-36 hr prior to incubation with compound. After the appropriate incubation time cells were washed once with ice cold PBS and harvested in ice cold 125 μL lysis buffer (50 mM Tris-HCl pH 7.4, 150 mM NaCl, 1 mM EDTA, 1% Triton X100) containing protease inhibitor cocktail (Roche), 1 mM PMSF (Sigma), and phosphatase inhibitors (Sigma). Samples were allowed incubate on ice for 10 min with vortexing once every 3 min. Cellular debris was pelleted by spinning at 14,000 rpm for 15 min to collect the supernatant. Samples were then quantified for protein content with the Bradford assay (Bio-rad) and boiled with 4× sample buffer (Li-Cor) for 5 min. Protein electrophoresis was performed in 4-20% precast Tris glycine SDS gels (Bio-rad) and transferred to PVDF membranes. Membrane blocking was done with Odyssey Blocking Buffer (Li-Cor). The following antibodies used to probe changes in protein levels or phosphorylation states: RBP1 (Santa Cruz Biotechnology, N20), p53 (Santa Cruz Biotechnology, DO1), phospho-Chk2-Thr68 (Cell Signaling Technology), Phospho-p53-Ser15 (Cell Signaling Technology), phosphor-H2A.X-Ser139 (Cell Signaling Technology), phosphor-ATM-Ser1981 (Abcam), phosphor-DNA-PKcs-Ser2056 (Abcam), and […] (Abcam). […]

[3] = test system: PSA mRNA expression in LNCaP cells; test: DHT-induced PSA mRNA in LNCaP cells, quantitative real-time RT-PCR; assay type: cell-based
Procedure: LNCaP cells (ATCC) were plated in 24-well plates at a density of 40-50×10^3 cells per well (80-100×10^3 cells per ml) in RPMI medium 1640 (ATCC) supplemented with 10% FBS (Irvine Scientific, Santa Ana, Calif.). After 72 h, the medium was replaced with RPMI medium 1640 containing 10% charcoal stripped FBS with or without polyamides at the designated concentrations. Cells were grown for an additional 48 h and then treated with 1 nM DHT for 16 h. When appropriate, bicalutamide was added 2 h before DHT stimulation. Isolation of RNA and cDNA synthesis was performed as described (21). Quantitative real-time RT-PCR was performed with SYBR Green PCR Master Mix (Applied Biosystems, Foster City, Calif.) on an ABI 7300 instrument. PSA mRNA was measured relative to β-glucuronidase as an endogenous control.

GILZ enhancer GRE2 = test: Quantitative DNase I footprint titration on pKAM5 fragment, GRE2; assay type: binding
Procedure: Detailed experimental protocols are reported elsewhere (44). The GILZ enhancer contains two GREs separated by 22 base pairs (46). GRE 1 is 5'-[NT]=3' (SEQ ID NO:5) and GRE 2 is […] ID NO:7). The DNA binding of polyamides 1 and 2 on these sequences was measured by quantitative DNase I footprint. […] […]).

[4] = test system: AR occupancy at the PSA promoter and enhancer; test: Chromatin immunoprecipitation with anti-AR, PSA promoter and enhancer; assay type: cell-based
Procedure: LNCaP cells were plated in 15-cm diameter plates at a density of 2×10^6 cells per plate. Media, polyamide treatment, time course, and DHT stimulation were the same as described above. After the 16-h DHT treatment, cells were treated with 1% formaldehyde for 10 min. Chromatin was isolated and sheared. Antibodies to AR (AR-20, Santa Cruz Biotechnology, Santa Cruz, Calif.) were used to immunoprecipitate AR-bound DNA fragments. Crosslinks were reversed, and PCRs using primers targeted to the regions of interest were used to assess enrichment of bound fragments as compared with mock-precipitated (no antibody) controls. PCRs were monitored with SYBR Green PCR Master Mix (Applied Biosystems) on an ABI 7300 instrument. Primer sequences and a more detailed experimental protocol are available upon request.

[5] = cited from earlier work
[6] = Escalating single dose subcutaneous injections, male C57BL/6J mice (weight, histopathology, serum)
Procedure: Representative mice (n=2 per dosing group unless otherwise noted) were subjected to histopathology analysis by a veterinary pathologist. Blood from all mice was sampled and sent for analysis of serum markers of target organs. […] These mice were euthanized when significant duress was apparent.
All animal experiments were conducted under an approved protocol at the California Institute of Technology. Animals were allowed to adjust for 3 days after arrival before treatment. […] Animals were monitored daily for weight loss over 9 days and sacrificed. […] Weight was recorded on days of injection and at the experiment endpoint.
Sacrificed animals from weight loss experiments were fixed in 10% formalin and sent for histopathology analysis by IDEXX-RADIL. Histopathologic analysis was performed on the cecum, duodenum, heart, ileum, kidney, liver, lung, pancreas, spleen, and stomach. Tissue analysis was performed as a blind study to the identity of the animals.
Serum from treated animals were collected by retroorbital bleeding. Blood samples were centrifuged at 6,000 rpm for 5 min to collect the serum. Serum ALT, AST, total bilirubin, BUN, and creatinine levels were sent for analysis by IDEXX-RADIL. Serum analysis was performed as a blind study to the identity of the animals.

ARE of the PSA promoter = test: Quantitative DNase I footprint titration on pAR-PSA fragment; assay type: binding
Description: Plasmid pAR-PSA was constructed by inserting a 70-bp sequence from the PSA promoter containing the ARE into pUC19 plasmid. […] Detailed experimental protocols are reported elsewhere (44). The proximal PSA promoter contains the ARE [NT] ID NO:15) (FIG. 8A). […] However, 1 is observed to bind the sequence [NT]≈12 bp 5' to the ARE, which is an expected binding site for this molecule.

Structure (SMILES): CN(CCCNC(=O)c1cccc(C(=O)O)c1)CCCNC(=O)c1cc(NC(=O)c2cc(NC(=O)c3cc(NC(=O)c4nc(NC(=O)[C@H](N)CCNC(=O)c5cc(NC(=O)c6cc(NC(=O)c7cc(NC(=O)c8nccn8C)cn7C)cn6C)cn5C)cn4C)cn3C)cn2C)cn1C [Polyamide 1, ImPyPyPy-2-(R)H^2Nγ-ImPyPyPy-NHMe-IPA]
- liver and kidney histopathology [1]: mild multifocal hepatocellular necrosis and apoptosis in the liver and mild variable tubular attenuation, karyomegaly and epithelial necrosis and apoptosis in the kidney
- liver and kidney serum markers [1]: elevated AST and ALT
- weight and physical morbidity ([1]; three injections, listed as 77): no loss in weight or physical morbidities
- share of DHT-induced transcripts affected [2]: approximately 30%
- RPB1 protein (RPB1): decreases
- RPB1 protein level (RNAP2 large subunit RPB1): depletion of RPB1 in a time- and concentration-dependent manner
- AR mRNA [3]: minimally affected
- effects on cell growth ([3]; LNCaP, over the course of the experiment): no obvious detrimental effects on cell growth
- Ka (GILZ enhancer GRE2): 8.8±1.8×10^9
- occupancy of AR at the PSA promoter and enhancer ([4]; 1 μM as printed): decreased occupancy
- AR occupancy at the PSA promoter and enhancer ([4]; 10 μM, FIG. 9 legend): decreased
- animal toxicity after single subcutaneous administration ([5]; female C57BL/6J mice, 77 at 2.5 and 5 mg/kg, 80 at 2.3 and […]): did not adversely affect the animals
- weight loss ([5]; female mice, 10 mg/kg SC): greater than 15%
- doses without toxicity ([5]; mouse, in vivo): less than 10 mg/kg
- tolerability, behavior and morbidity after single SC dose ([6]; 1, 3, 10 mg/kg): no change in behavior and appearance
- weight loss after single SC dose ([6]; 1, 3, 10 mg/kg, 9 days): significant weight loss only at 10 mg/kg
- liver histopathology ([6]; single SC 3 mg/kg): Mild hepatocellular necrosis and apoptosis
- kidney histopathology ([6]; single SC 10 mg/kg): Milder tubular regeneration and karyomegaly
- liver histopathology ([6]; single SC 10 mg/kg): Mild hepatocellular necrosis and apoptosis
- serum kidney markers creatinine and BUN ([6]; single SC dose): not observed for any dose level
- serum liver markers AST, ALT, total bilirubin ([6]; single SC dose): significant elevation of AST, ALT, and total bilirubin at 10 mg/kg, indicative of acute damage to liver cells, and moderate elevation of ALT at 3 mg/kg
- binding at the other half-site of the ARE (ARE of the PSA promoter; 5′-AGTGCT-3′, single base pair mismatch site): Minimal binding
- Ka (ARE of the PSA promoter; ARE consensus half-site 5′-AGAACA-3′): 8.3±1.7×10^9 M^−1
- Ka (ARE of the PSA promoter; ARE half site 5′-AGAACA-3′, FIG. 8 legend): 8.3±1.7×10^9
- Kd (ARE of the PSA promoter; half-site of the ARE of the PSA promoter): subnanomolar
